Here are results for 1 substance from patent publication US20090227533A1, “miR-34 Regulated Genes and Pathways as Targets for Therapeutic Intervention” (priority 2007, published 2009).

In data set [1] the test system is H226 lung cancer cells. The experiment in a line: Long-term growth curve with repeated electroporation. The class given is cell-based, human. The conditions noted are these: day 31, relative to control cells (100%). The method, then: To evaluate the therapeutic activity of hsa-miR-34a over an extended period of time, the inventors conducted growth curve experiments in the presence of miRNA for up to 31 days in H226 lung cancer cells. Since in vitro transfections of naked interfering RNAs, such as synthetic miRNA, are transient by nature and compromised by the dilution of the oligo during ongoing cell divisions, miRNA was administered at multiple time points (Bartlett et al., 2006; Bartlett et al., 2007). To accommodate miRNA delivery into a large quantity of cells, hsa-miR-34a or negative control miRNA were delivered by the electroporation method. Briefly, 1×10^6H226 were electroporated in triplicate with 1.6 μM hsa-miR-34a or negative control using the BioRad Gene Pulser Xcell™ instrument (BioRad Laboratories Inc., Hercules, Calif., USA), seeded and propagated in regular growth medium. When the control cells reached confluence (days 6, 17 and 25), cells were harvested, counted and electroporated again with the respective miRNAs. […] The population doubling was calculated from these electroporation events using the formula PD=ln(Nf/N0)/ln 2 and adjusting for the fact that approximately 72% of newly seeded cells adhere to the plate. […]

Data set [2] deals with H226 cells. The experiment in a line: Alamar Blue proliferation assay, lung cancer cells (electroporation). The conditions noted are these: hsa-miR-34a (head: 30 nM), electroporation, 72 hours, normalized to NC (100%). It is filed as cell-based, human. The text has this:
The inventors assessed the therapeutic effect of hsa-miR-34a for lung cancer by using eight individual lung cancer cell lines. To measure cellular proliferation of lung cancer cells, the following non-small cell lung cancer (NSCLC) cells were used: cells derived from lung adenocarcinoma (A549, H522, Calu-3, HCC2935), cells derived from lung squamous cell carcinoma (H226), cell derived from lung adenosquamous cell carcinoma (H596), cells derived from lung bronchioalveolar carcinoma (H1650), and cells derived from lung large cell carcinoma (H460). Synthetic hsa-miR-34a (Pre-miR™-hsa-miR-34a, Ambion cat. no. AM17100) or negative control (NC) miRNA (Pre-miR™ microRNA Precursor Molecule-Negative Control #2; Ambion cat. no. AM17111) was delivered via lipid-based transfection into A549, H522, H596, Calu-3, HCC2935, H1650, H460 cells and via electroporation into H226 cells.
Lipid-based reverse transfections were carried out in triplicate according to a published protocol (Ovcharenko et al., 2005) and the following parameters: cells (5,000-12,000 per 96 well), 0.1-0.2 μl Lipofectamine™ 2000 (cat. no. 11668-019, Invitrogen Corp., Carlsbad, Calif., USA) in 20 μl OptiMEM (Invitrogen), 30 nM final concentration of miRNA in 100 μl. Electroporation of H226 cells was carried out using the BioRad Gene Pulser Xcell™ instrument (BioRad Laboratories Inc., Hercules, Calif., USA) with the following settings: 5×10^6 cells with 5 μg miRNA in 200 μl OptiMEM (1.6 μM miRNA), square wave pulse at 250 V for 5 ms. Electroporated H226 cells were seeded at 7,000 cells per 96-well in a total volume of 100 μl. All cells except for Calu-3 cells were harvested 72 hours post transfection or electroporation for assessment of cellular proliferation. Calu-3 cells were harvested 10 days post transfection. Proliferation assays were performed using Alamar Blue (Invitrogen) following the manufacturer's instructions. As a control for inhibition of cellular proliferation, siRNA against the motor protein kinesin 11, also known as Eg5, was used. […]
(In general: The colour change of resazurin is a common sign of viable cells or microbes.)

For data set [3], the system named is prostate cancer cells (22Rv1). Particulars: cited from earlier work.

Turning to “hsa-miR-34a: synthetic miRNA; mature sequence UGGCAGUGUCUUAGCUGGUUGUU (MIMAT0000255; SEQ ID NO:1) (synthetic miRNA, chemistry not given here)”, the “inhibition of H226 cell growth” value in data set [1] (1.6 μM electroporated on days 0, 6, 17, 25) was found to be 94.9%. The substance further had a remaining cells in data set [1] of 5.1%. The “% proliferation” value in data set [2] was 89.50%. Also, in data set [3], the proliferation result is “inhibits the proliferation”.
